Assay results as given in article PMC8071274 (International Journal of Molecular Sciences, 2021).
“Also recorded” adds a separate entry of the source. Where a SMILES comes first, the peptide text is derived from it. Where no end group is shown, it is not given here. The star is where a group is joined. For = O=C*

Columns and labels:
[1] = Time-dependent alteration of molecular forms of MCT-2(1–15) in mouse serum (RP-HPLC, MALDI-TOF-MS); type: in vitro ADME; settings: 37 °C; for time of maximum amount of the degradation product in serum: RP-HPLC, MALDI-TOF-MS
Description: Male C57BL/6JJcl mice, 12–14 weeks of age, weighing 25–30 g, were anesthetized (50 mg/kg pentobarbital), and blood was collected from the caudal vena cava and stored overnight at 4 °C. The blood sample was centrifuged at 4 °C and 20,000× g for 20 min, and the supernatant was transferred to a new tube as mouse serum and stored at −80 °C. MCT-2(1–15) was incubated in mouse serum at a final concentration of 500 μM at 37 °C, and aliquots (100 μL) were collected from the incubation mixture after 0, 1, 2, 4, 24, and 48 h. These aliquots were mixed with TCA (final concentration: 3% w/v) and kept on ice for 30 min to precipitate denatured proteins. The samples were centrifuged at 4 °C and 13,000× g for 15 min, and the supernatants were analyzed by RP-HPLC on a C18 column (4.6 × 150 mm, Cosmosil; Nacalai Tesque, Inc.). RP-HPLC peaks that contained MCT-2(1–15) and its derivative peptides were analyzed by MALDI-TOF-MS to identify their molecular forms.

[2] = system: differentiated HL-60 cells; type: cell-based, human; settings: 72 h
Description: HEK-293 cells (American Type Culture Collection, Manassas, VA, USA) were maintained in DMEM (Thermo Fisher Scientific, Waltham, MA, USA) containing 10% FBS (Thermo Fisher Scientific) in a humidified atmosphere at 5% CO2 and 37 °C. Human acute leukemia-derived HL-60 cells (RIKEN Cell Bank, Ibaraki, Japan) were cultured in RPMI-1640 medium (Thermo Fisher Scientific) containing 10% FBS in a humidified atmosphere at 5% CO2 and 37 °C. HL-60 cells were treated with 500 μM dibutyryl-cAMP (Sigma-Aldrich, St. Louis, MO, USA) for 72 h to differentiate the cells into neutrophilic/granulocytic cells as described elsewhere. The ability of MCT-2-related peptides to activate HL-60 cells differentiated into neutrophilic/granulocytic cells was evaluated by stimulation of β-hexosaminidase secretion from the cells. Briefly, differentiated HL-60 cells were washed 3 times with ice-cold HEPES-buffered Hank’s solution (HBHS; 10 mM HEPES, 136.9 mM NaCl, 5.4 mM KCl, 1.2 mM CaCl2, 0.44 mM KH2PO4, 0.49 mM MgCl2, 0.41 mM MgSO4, 0.34 mM Na2HPO4, 5.5 mM glucose, 4.2 mM NaHCO3, and 0.1% BSA, pH 7.4). The cells were resuspended in HBHS at a density of 5.6 × 10^6 cells/mL, and DNase I (Sigma-Aldrich) and cytochalasin B (Sigma-Aldrich) were each added at a final concentration of 5 μg/mL. The cell suspension in each tube (5.0 × 10^5 cells/90 μL) was preincubated at 37 °C for 10 min and stimulated with 10 μL synthetic peptide solution at 37 °C for 10 min. The inhibitory effects of inhibitors against FPR1 [CysH (Sigma-Aldrich)] and FPR2 [PBP10 (Tocris Bioscience, Bristol, UK)] on β-hexosaminidase release induced by MCT-2 and its derivatives were also evaluated in the differentiated HL-60 cells; each cell suspension prepared as above (90 μL) was transferred to a tube (5.0 × 10^5 cells/tube) with 5 μL inhibitor solution for FPR1 (CysH) or FPR2 (PBP10). Each tube was then preincubated at 37 °C for 10 min and stimulated with 5 μL synthetic peptide solution at 37 °C for 10 min. After stimulation, 200 μL ice-cold reaction quenching buffer (25 mM Tris, 123 mM NaCl, and 2.7 mM KCl, pH 7.4) was added to each cell suspension to stop the reaction. Thereafter, these tubes were centrifuged at 4 °C and 2300× g for 1 min, and each supernatant was transferred into a new tube. β-Hexosaminidase activity in the supernatant was measured as described previously. Briefly, 90 μL supernatant was transferred to each well of a 96-well microtiter plate, and 60 μL of a substrate solution for β-hexosaminidase [10 mM p-nitrophenyl N-acetyl-β-D-glucosaminide (Sigma-Aldrich), 40 mM citrate, and 70 mM NaHPO4, pH 4.5] was added to initiate the enzyme reaction. After incubation of the plate at 37 °C for 1 h, 100 μL of 400 mM glycine (pH 10.7) was added to stop the reaction. The absorbance at 415 nm for the resulting p-nitrophenol and at 490 nm for the reference was measured using a microtiter plate reader (Viento XS; BioTek Instruments, Winooski, VT, USA). The ability of each peptide to induce β-hexosaminidase release was expressed as a percentage of enzyme secretion promoted by 10 μM MCT-2(1–15) that induced the maximum response for the elucidation of full or partial agonists to the activity of MCT-2(1–15) (Figure 2 and Figure 4, Table 2) or a percentage of the total enzyme activity, which was the enzyme activity released after disruption of the cells with 0.05% Triton X-100 (Figure 3).

mouse serum = settings: Male C57BL/6JJcl mice, 37 °C, up to 48 h
[3] = product formed from 500 μM MCT-2(1–15) in mouse serum
[4] = product formed from 500 μM MCT-2(1–15) in mouse serum, 4 h

Row | Molecule | time of first detection of the degradation product in serum [1, 3] [h] | presence of the degradation product in serum at 4 h [1, 4] | time of maximum amount of the degradation product in serum [1, 3] [h] | EC50 [2] [nM] | also measured
1 | CC[C@H](C)[C@H](NC(=O)[C@H](CCCCN)NC(=O)[C@H](CCCNC(=N)N)NC(=O)[C@H](CCSC)NC(=O)[C@@H]1CCCN1C(=O)[C@@H](NC(=O)[C@H](CCSC)NC=O)[C@@H](C)O)C(=O)N[C@@H](CC(N)=O)C(=O)N1CCC[C@H]1C(=O)N[C@@H](CC(C)C)C(=O)N[C@@H](CCSC)C(=O)O [MCT-2(1–11)] (For-MTPMRKINPLM-OH) | 1 | not found | 1 | 547 ± 93.9 | 
2 | CC[C@H](C)[C@H](NC(=O)[C@H](CC(C)C)NC(=O)[C@H](CCCCN)NC(=O)[C@H](CCSC)NC(=O)[C@H](CC(C)C)NC(=O)[C@@H]1CCCN1C(=O)[C@H](CC(N)=O)NC(=O)[C@@H](NC(=O)[C@H](CCCCN)NC(=O)[C@H](CCCNC(=N)N)NC(=O)[C@H](CCSC)NC(=O)[C@@H]1CCCN1C(=O)[C@@H](NC(=O)[C@H](CCSC)NC=O)[C@@H](C)O)[C@@H](C)CC)C(=O)N[C@@H](CC(N)=O)C(=O)O [MCT-2(1–15), Mitocryptide-2] (For-MTPMRKINPLMKLIN-OH) |  |  |  | 20 ± 3.39 | metabolised at 1 h, 500 μM ([1]; male, C57BL/6JJcl, mouse serum, 500 μM peptide, 1 h, TCA precipitation, RP-HPLC (214 nm), read-out: reduction of amount of peptide in serum at 1 h): ~50%; metabolised at 2 h, 500 μM ([1]; male, C57BL/6JJcl, mouse serum, 500 μM peptide, 2 h, TCA precipitation, RP-HPLC (214 nm), read-out: reduction of amount of peptide in serum at 2 h): ~80%; half-life at 500 μM ([1]; male, C57BL/6JJcl, mouse serum, 500 μM peptide, RP-HPLC (214 nm)): ~60 min; peptide remaining in serum at 4 h ([1]; mouse serum, 500 μM peptide, 4 h, RP-HPLC (214 nm)): completely disappeared
3 | CC[C@H](C)[C@H](NC(=O)[C@H](CCCCN)NC(=O)[C@H](CCCNC(=N)N)NC(=O)[C@H](CCSC)NC(=O)[C@@H]1CCCN1C(=O)[C@@H](NC(=O)[C@H](CCSC)NC=O)[C@@H](C)O)C(=O)N[C@@H](CC(N)=O)C(=O)N1CCC[C@H]1C(=O)N[C@@H](CC(C)C)C(=O)O [MCT-2(1–10)] (For-MTPMRKINPL-OH) | 1 | not found | 2 | 1800 ± 173 | 
4 | For-MTPMRKINPLMKLIN |  |  |  |  | fragment found (mouse serum): MCT-2(1–11), 1 h; also recorded: MCT-2(1–10), 1 h; also recorded: MCT-2(1–4), 1 h
5 | CSCC[C@H](NC(=O)[C@@H]1CCCN1C(=O)[C@@H](NC(=O)[C@H](CCSC)NC=O)[C@@H](C)O)C(=O)O [MCT-2(1–4)] (For-MTPM-OH) | 1 |  | 4 | 18000 | time the degradation product was present in serum [1, 3]: more than 48 h; presence of the degradation product in serum at 48 h ([1]; product formed from 500 μM MCT-2(1–15) in mouse serum, 48 h): still present
